Results from patent US6337417B1, “N-phenyltetrahydrophthalamic acid derivatives, methods of producing same, and herbicides containing same as effective components” (Central Glass Co., Ltd., priority 1994, dated 2002).

Tests used:
Assay type in all cases: in vivo
Set-up in all cases: key: 5: completely killed; 4: seriously injured; 3: considerably injured; 2: somewhat injured; 1: slightly injured; 0: not injured (normally grown)
paddy rice = assay: Experiment 7 flooded soil treatment: injury to paddy rice; conditions: evaluated 4 weeks after treatment
From the text: (§1) Paddy soil (clay loam) was put into a pot so as to have a surface area of 1/15500 ares. Uniformly mixed seeds of several kinds of weeds, viz., nobie (barnyardgrass, Echinochloa spp.), broad-leaved weeds, hotarui (bulrush, Scirpus juncoides) and tamagayatsuri (small-flowered umbrellaplant, Cyperus difformis), were sown in the surface layer of the soil in each pot, and then paddy rice seedlings at the two- or three-leaved stage were transplanted into each pot to a depth of 2 cm, and water was fed into each pot so as to provide a 3 cm deep water layer on the soil surface. After 3 days, in other words at the initial stage of germination of nobie (barnyardgrass, Echinochloa spp.), a predetermined amount of a selected compound obtained in a manner analogous to Example 14 in the form of diluted aqueous solution was dropped into the water layer in each pot. After that, the pots were kept in a glass chamber to allow the paddy rice and the weeds to grow, and after the lapse of 4 weeks from the treatment with the selected compounds, the herbicidal effects and the degree of injury to the paddy rice were evaluated. The evaluation of the herbicidal effects was similarly conducted as that of Experiment 1.

[1] = test system: nobie (barnyardgrass, Echinochloa spp.); assay: Experiment 7 flooded soil treatment: nobie; conditions: evaluated 4 weeks after treatment
From the text: as §1

broad-leaved weeds = assay: Experiment 7 flooded soil treatment: broad-leaved weeds; conditions: evaluated 4 weeks after treatment
From the text: as §1

[2] = test system: hotarui (bulrush, Scirpus juncoides); assay: Experiment 7 flooded soil treatment: hotarui; conditions: evaluated 4 weeks after treatment
From the text: as §1

[3] = test system: tamagayatsuri (small-flowered umbrellaplant, Cyperus difformis); assay: Experiment 7 flooded soil treatment: tamagayatsuri; conditions: evaluated 4 weeks after treatment
From the text: as §1

rice = assay: Experiment 8 foliage treatment: rice; conditions: foliage spray of wettable powder suspension, evaluated 4 weeks after treatment
Method: (§2) Upon seedling stage (two- or three-leaved stage) of rice, cockspur (Panicum crus-galli), garden radish, aobiyu (slender amaranth, Amaranthus viridis) and mehishiba (henry crabgrass, Digitaria cliaris) which were grown on a cultivated soil put in pots of 1/15500 ares, a selected compound obtained in a manner analogous to Example 14, in suspended wettable powder, was sprayed to each plant. After that, the pots were kept in a glass chamber to allow each plant to grow, and after the lapse of 4 weeks from the treatment with the selected compounds the herbicidal effects were evaluated. The evaluation of the herbicidal effects was similarly conducted as to that of Experiment 1.

[4] = test system: cockspur (Panicum crus-galli); assay: Experiment 8 foliage treatment: cockspur; conditions: foliage spray of wettable powder suspension, evaluated 4 weeks after treatment
Method: as §2

garden radish = assay: Experiment 8 foliage treatment: garden radish; conditions: foliage spray of wettable powder suspension, evaluated 4 weeks after treatment
Method: as §2

[5] = test system: aobiyu (slender amaranth, Amaranthus viridis); assay: Experiment 8 foliage treatment: aobiyu; conditions: foliage spray of wettable powder suspension, evaluated 4 weeks after treatment
Method: as §2

[6] = test system: mehishiba (henry crabgrass, Digitaria cliaris); assay: Experiment 8 foliage treatment: mehishiba; conditions: foliage spray of wettable powder suspension, evaluated 4 weeks after treatment
Method: as §2

C#CC(C)Oc1cc(N(C(=O)C2=C(C(=O)OC)CCCC2)C(=O)c2sccc2C)c(F)cc1Cl (stereo not drawn) [compound 95]
5: Herbicidal Effect nobie ([1]; 6.25 g/10a) | Herbicidal Effect nobie ([1]; 12.5 g/10a) | Herbicidal Effect broad-leaved weed (broad-leaved weeds; 6.25 g/10a) | Herbicidal Effect broad-leaved weed (broad-leaved weeds; 12.5 g/10a) | Herbicidal Effect tamagayatsuri ([3]; 6.25 g/10a) | Herbicidal Effect tamagayatsuri ([3]; 12.5 g/10a) | Herbicidal Effect aobiyu ([5]; 40 g/10a) | Herbicidal Effect aobiyu ([5]; 80 g/10a)
1: Herbicidal Effect rice (rice; 40 g/10a) | Herbicidal Effect rice (rice; 80 g/10a) | Herbicidal Effect cockspur ([4]; 40 g/10a) | Herbicidal Effect cockspur ([4]; 80 g/10a) | Herbicidal Effect mehishiba ([6]; 40 g/10a) | Herbicidal Effect mehishiba ([6]; 80 g/10a)
4: Herbicidal Effect hotarui ([2]; 6.25 g/10a) | Herbicidal Effect hotarui ([2]; 12.5 g/10a) | Herbicidal Effect garden radish (garden radish; 40 g/10a) | Herbicidal Effect garden radish (garden radish; 80 g/10a)
0: Injury of Paddy (paddy rice; 6.25 g/10a) | Injury of Paddy (paddy rice; 12.5 g/10a)

COC(=O)COc1cc(N(C(=O)C2=C(C(=O)OC)CCCC2)C(=O)c2cccs2)c(F)cc1Cl [compound 99]
0: Injury of Paddy (paddy rice; 6.25 g/10a) | Injury of Paddy (paddy rice; 12.5 g/10a)
4: Herbicidal Effect hotarui ([2]; 6.25 g/10a) | Herbicidal Effect hotarui ([2]; 12.5 g/10a) | Herbicidal Effect tamagayatsuri ([3]; 6.25 g/10a) | Herbicidal Effect garden radish (garden radish; 40 g/10a) | Herbicidal Effect garden radish (garden radish; 80 g/10a) | Herbicidal Effect aobiyu ([5]; 40 g/10a)
5: Herbicidal Effect nobie ([1]; 6.25 g/10a) | Herbicidal Effect nobie ([1]; 12.5 g/10a) | Herbicidal Effect broad-leaved weed (broad-leaved weeds; 6.25 g/10a) | Herbicidal Effect broad-leaved weed (broad-leaved weeds; 12.5 g/10a) | Herbicidal Effect tamagayatsuri ([3]; 12.5 g/10a) | Herbicidal Effect aobiyu ([5]; 80 g/10a)
1: Herbicidal Effect rice (rice; 40 g/10a) | Herbicidal Effect rice (rice; 80 g/10a) | Herbicidal Effect cockspur ([4]; 40 g/10a) | Herbicidal Effect cockspur ([4]; 80 g/10a) | Herbicidal Effect mehishiba ([6]; 40 g/10a) | Herbicidal Effect mehishiba ([6]; 80 g/10a)

C#CC(C)Oc1cc(N(C(=O)C2=C(C(=O)OCCCC)CCCC2)C(=O)c2cccs2)c(F)cc1Cl (stereo not drawn) [compound 93]
0.5: Injury of Paddy (paddy rice; 6.25 g/10a) | Injury of Paddy (paddy rice; 12.5 g/10a)
4: Herbicidal Effect hotarui ([2]; 6.25 g/10a) | Herbicidal Effect hotarui ([2]; 12.5 g/10a) | Herbicidal Effect tamagayatsuri ([3]; 6.25 g/10a) | Herbicidal Effect tamagayatsuri ([3]; 12.5 g/10a) | Herbicidal Effect garden radish (garden radish; 40 g/10a)
5: Herbicidal Effect nobie ([1]; 6.25 g/10a) | Herbicidal Effect nobie ([1]; 12.5 g/10a) | Herbicidal Effect broad-leaved weed (broad-leaved weeds; 6.25 g/10a) | Herbicidal Effect broad-leaved weed (broad-leaved weeds; 12.5 g/10a) | Herbicidal Effect garden radish (garden radish; 80 g/10a) | Herbicidal Effect aobiyu ([5]; 40 g/10a) | Herbicidal Effect aobiyu ([5]; 80 g/10a)
1: Herbicidal Effect rice (rice; 40 g/10a) | Herbicidal Effect rice (rice; 80 g/10a) | Herbicidal Effect cockspur ([4]; 40 g/10a) | Herbicidal Effect cockspur ([4]; 80 g/10a) | Herbicidal Effect mehishiba ([6]; 40 g/10a) | Herbicidal Effect mehishiba ([6]; 80 g/10a)

COC(=O)C1=C(C(=O)N(C(=O)c2cccs2)c2cc(OC3CCCC3)c(Cl)cc2F)CCCC1 [compound 98]
0.5: Injury of Paddy (paddy rice; 6.25 g/10a) | Injury of Paddy (paddy rice; 12.5 g/10a)
1: Herbicidal Effect rice (rice; 40 g/10a) | Herbicidal Effect rice (rice; 80 g/10a) | Herbicidal Effect cockspur ([4]; 40 g/10a) | Herbicidal Effect cockspur ([4]; 80 g/10a) | Herbicidal Effect mehishiba ([6]; 40 g/10a) | Herbicidal Effect mehishiba ([6]; 80 g/10a)
5: Herbicidal Effect nobie ([1]; 6.25 g/10a) | Herbicidal Effect nobie ([1]; 12.5 g/10a) | Herbicidal Effect broad-leaved weed (broad-leaved weeds; 6.25 g/10a) | Herbicidal Effect broad-leaved weed (broad-leaved weeds; 12.5 g/10a) | Herbicidal Effect hotarui ([2]; 12.5 g/10a) | Herbicidal Effect tamagayatsuri ([3]; 6.25 g/10a) | Herbicidal Effect tamagayatsuri ([3]; 12.5 g/10a) | Herbicidal Effect aobiyu ([5]; 80 g/10a)
4: Herbicidal Effect hotarui ([2]; 6.25 g/10a) | Herbicidal Effect garden radish (garden radish; 40 g/10a) | Herbicidal Effect garden radish (garden radish; 80 g/10a) | Herbicidal Effect aobiyu ([5]; 40 g/10a)

C#CC(C)Oc1cc(N(C(=O)C2=C(C(=O)OCCC)CCCC2)C(=O)c2cccs2)c(F)cc1Cl (stereo not drawn) [compound 92]
5: Herbicidal Effect nobie ([1]; 6.25 g/10a) | Herbicidal Effect nobie ([1]; 12.5 g/10a) | Herbicidal Effect broad-leaved weed (broad-leaved weeds; 6.25 g/10a) | Herbicidal Effect broad-leaved weed (broad-leaved weeds; 12.5 g/10a) | Herbicidal Effect tamagayatsuri ([3]; 12.5 g/10a) | Herbicidal Effect aobiyu ([5]; 40 g/10a) | Herbicidal Effect aobiyu ([5]; 80 g/10a)
1: Herbicidal Effect rice (rice; 40 g/10a) | Herbicidal Effect rice (rice; 80 g/10a) | Herbicidal Effect cockspur ([4]; 40 g/10a) | Herbicidal Effect cockspur ([4]; 80 g/10a) | Herbicidal Effect mehishiba ([6]; 40 g/10a) | Herbicidal Effect mehishiba ([6]; 80 g/10a)
0: Injury of Paddy (paddy rice; 6.25 g/10a) | Injury of Paddy (paddy rice; 12.5 g/10a)
4: Herbicidal Effect hotarui ([2]; 6.25 g/10a) | Herbicidal Effect hotarui ([2]; 12.5 g/10a) | Herbicidal Effect tamagayatsuri ([3]; 6.25 g/10a) | Herbicidal Effect garden radish (garden radish; 40 g/10a) | Herbicidal Effect garden radish (garden radish; 80 g/10a)

C#CC(C)Oc1cc(N(C(=O)C2=C(C(=O)OC)CCCC2)C(=O)c2ccc(C)s2)c(F)cc1Cl (stereo not drawn) [compound 96]
4: Herbicidal Effect hotarui ([2]; 6.25 g/10a) | Herbicidal Effect hotarui ([2]; 12.5 g/10a)
0.5: Injury of Paddy (paddy rice; 12.5 g/10a)
5: Herbicidal Effect nobie ([1]; 6.25 g/10a) | Herbicidal Effect nobie ([1]; 12.5 g/10a) | Herbicidal Effect broad-leaved weed (broad-leaved weeds; 6.25 g/10a) | Herbicidal Effect broad-leaved weed (broad-leaved weeds; 12.5 g/10a) | Herbicidal Effect tamagayatsuri ([3]; 6.25 g/10a) | Herbicidal Effect tamagayatsuri ([3]; 12.5 g/10a) | Herbicidal Effect garden radish (garden radish; 40 g/10a) | Herbicidal Effect garden radish (garden radish; 80 g/10a) | Herbicidal Effect aobiyu ([5]; 40 g/10a) | Herbicidal Effect aobiyu ([5]; 80 g/10a)
0: Injury of Paddy (paddy rice; 6.25 g/10a)
1: Herbicidal Effect rice (rice; 40 g/10a) | Herbicidal Effect rice (rice; 80 g/10a) | Herbicidal Effect cockspur ([4]; 40 g/10a) | Herbicidal Effect cockspur ([4]; 80 g/10a) | Herbicidal Effect mehishiba ([6]; 40 g/10a) | Herbicidal Effect mehishiba ([6]; 80 g/10a)
